{"source": "patent US9593305B2", "about": "“Differentiation of pluripotent stem cells” (Janssen Biotech, Inc., priority 2008, dated 2017)", "key": {"[1]": {"test_system": "H1 human embryonic stem cells", "test": "Secondary assay: panel of compounds with growth factor combinations and muscimol, no activin A (Example 6, Table 5)", "type": "cell-based", "method": "Clusters of H1 human embryonic stem cells were grown on reduced growth factor […]™ (Invitrogen; Cat #356231)-coated tissue culture plastic. Cells were passaged using collagenase (Invitrogen; Cat #17104-019) treatment and gentle scraping, washed to remove residual enzyme, and plated with even dispersal at a ratio of 1:1 (surface area) on reduced growth factor […]™-coated 96-well black plates (Packard ViewPlates; PerkinElmer; Cat #6005182) using volumes of 100 μl/well. Cells were allowed to attach as clusters and then recover log phase growth over a 1 to 3 day period, feeding daily with MEF-conditioned medium supplemented with 8 ng/ml bFGF (R&D Systems; Cat #233-FB). Plates were maintained at 37° C., 5% CO2 in a humidified box throughout the duration of the assay. Stocks of growth factors purchased from R&D Systems were EGF (Cat #236-EG), FGF4 (Cat #235-F4), PDGF-A (Cat #221-AA), PDGF-D (Cat #1159-SB), PDGF-A/B (Cat #222-AB), and VEGF (Cat #293-VE). […] All growth factors were solubilized in PBS with 0.1% BSA (Sigma; Cat #A7888) and stored frozen at −80° C. […] Cat #D2650) and stored frozen at −80° C. Compounds were available as 5 mM stocks in 96-well plate format, solubilized in 100% DMSO and stored at −80° C. Compounds were further diluted to an intermediate concentration of 0.2 mM in 50 mM HEPES (Invitrogen; Cat #15630-080), 20% DMSO and stored at 4° C. All growth factors and inhibitors were prepared in a deep well, 96-well polypropylene plate, diluted to 5× intermediate stocks in DMEM:F12 base medium at the beginning of assay and stored at 4° C. A secondary screening assay was conducted, testing in triplicate and feeding on alternate days over the four-day assay timeframe. Assays were initiated by aspirating culture medium from each well followed by three washes in PBS to remove residual growth factors and serum. Test volumes of 80 μl per well were added back containing DMEM:F12 base medium (Invitrogen; Cat #11330-032) supplemented with 0.625% FCS (HyClone; […] All remaining growth factors were tested at a final assay concentration of 50 ng/ml (EGF, FGF4, PDGF-A, PDGF-A/B, VEGF). […] At the conclusion of four-days of culture, assay plates were washed twice with PBS, fixed with 4% paraformaldehyde (Alexis Biochemical; Cat #ALX-350-011) at room temperature for 20 minutes, then washed three times with PBS and permeabilized with 0.5% Triton X-100 (Sigma; Cat #T8760-2) for 20 minutes at room temperature. Cells were washed again three times with PBS and blocked with 4% chicken serum (Invitrogen; Cat #16110082) in PBS for 30 minutes at room temperature. Primary antibody (goat anti-human SOX17; R&D Systems; cat #AF1924) was diluted 1:100 in 4% chicken serum and added to each well for one hour at room temperature. Alexa Fluor 488 conjugated secondary antibody (chicken anti-goat IgG; Molecular Probes; Cat #AZ1467) was diluted 1:200 in PBS and added to each sample well after washing three times with PBS. To counterstain nuclei, 4 μg/ml Hoechst 33342 (Invitrogen; Cat #H3570) was added for ten minutes at room temperature. Plates were washed once with PBS and left in 100 μl/well PBS for imaging. Imaging was performed using an IN Cell Analyzer 1000 (GE Healthcare) utilizing the 51008bs dichroic for cells stained with Hoechst 33342 and Alexa Fluor 488. Exposure times were optimized from positive control wells and from untreated negative control wells stained with secondary antibody alone. Images from 15 fields per well were acquired to compensate for any cell loss during the bioassay and subsequent staining procedures. […] Segmentation for the nuclei was determined based on grayscale levels (baseline range 100-300) and nuclear size. Averages and standard deviations were calculated for each replicate data set. Total SOX17 protein expression was reported as total intensity or integrated intensity, defined as total fluorescence of the cell multiplied by the area of the cell. […]"}, "[2]": {"test_system": "H1 human embryonic stem cells", "test": "Analog screening with GDF-8 and growth factor/agonist pool (Example 8, Tables 7 and 8)", "type": "cell-based", "set-up": "Cell Number, % of positive control / Sox17 Expression, % of positive control: tested at 2.5 µM", "method": "Briefly, clusters of H1 human embryonic stem cells were grown on reduced growth factor […]™ (Invitrogen; Cat #356231)-coated tissue culture plastic. Cells were passaged using collagenase (Invitrogen; Cat #17104-019) treatment and gentle scraping, washed to remove residual enzyme, and plated with even dispersal at a ratio of 1:1 (surface area) on reduced growth factor […]™-coated 96-well black plates (Packard ViewPlates; PerkinElmer; Cat #6005182) using volumes of 100 μl/well. Cells were allowed to attach as clusters and then recover log phase growth over a 1 to 3 day period, feeding daily with MEF conditioned medium supplemented with 8 ng/ml bFGF (R&D Systems; Cat #233-FB). Plates were maintained at 37° C., 5% CO2 in a humidified box throughout the duration of assay. Growth factors purchased from R&D Systems were EGF (Cat #236-EG), FGF4 (Cat #235-F4), PDGF-A (Cat #221-AA), PDGF-D (Cat #1159-SB), PDGF-A/B (Cat #222-AB). […] Screening was conducted using a library of compounds that were made available as 5 mM stocks in 96-well plate format, solubilized in 100% DMSO (Sigma; Cat #D2650) and stored at −80° C. The compounds were further diluted to an intermediate concentration of 0.2 mM in 50 mM HEPES (Invitrogen; Cat #15630-080), 20% DMSO and stored at 4° C. Test conditions were performed in single wells, feeding on alternate days over a four-day assay period. Primary screening assays were initiated by aspirating culture medium from each well followed by three washes in PBS (Invitrogen; Cat #14190) to remove residual growth factors and serum. On the first day of assay, test volumes of 200 μl per well were added back containing DMEM:F12 base medium (Invitrogen; Cat #11330-032) supplemented with 0.5% FCS (HyClone; […] Cat #1324-WN) plus 2.5 μM compound. All remaining growth factors were tested at a final assay concentration of 50 ng/ml (EGF, FGF4, PDGF-A, PDGF-A/B, VEGF) with the exception of GDF-8 tested at 25 ng/ml. […] Cat #120-14). […] All remaining growth factors were tested at a final assay concentration of 50 ng/ml (EGF, FGF4, PDGF-A, PDGF-A/B, VEGF) with the exception of GDF-8 tested at 25 ng/ml. […] Cat #120-14). Negative control samples contained DMEM:F12 base medium supplemented with 2% FCS. […] At the conclusion of four-days of culture, assay plates were washed twice with PBS (Invitrogen; Cat #14190), fixed with 4% paraformaldehyde (Alexis Biochemical; Cat #ALX-350-011) at room temperature for 20 minutes, then washed three times with PBS and permeabilized with 0.5% Triton X-100 (Sigma; Cat #T8760-2) for 20 minutes at room temperature. Cells were washed again three times with PBS and blocked with 4% chicken serum (Invitrogen; Cat #16110082) in PBS for 30 minutes at room temperature. Primary antibody (goat anti-human SOX17; R&D Systems; Cat #AF1924) was diluted 1:100 in 4% chicken serum and added to each well for one hour at room temperature. Alexa Fluor 488 conjugated secondary antibody (chicken anti-goat IgG; Molecular Probes; Cat #AZ1467) was diluted 1:200 in PBS and added to each sample well after washing three times with PBS. To counterstain nuclei, 4 μg/ml Hoechst 33342 (Invitrogen; Cat #H3570) was added for ten minutes at room temperature. Plates were washed once with PBS and left in 100 μl/well PBS for imaging. Imaging was performed using an IN Cell Analyzer 1000 (GE Healthcare) utilizing the 51008bs dichroic for cells stained with Hoechst 33342 and Alexa Fluor 488. Exposure times were optimized from positive control wells and from untreated negative control wells stained with secondary antibody alone. Images from 15 fields per well were acquired to compensate for any cell loss during the bioassay and subsequent staining procedures. […] Segmentation for the nuclei was determined based on gray-scale levels (baseline range 100-300) and nuclear size. Averages and standard deviations were calculated for each replicate data set. […]"}, "[3]": {"conditions": "EGF, FGF, PDGF-A, VEGF, PDGF-D, muscimol, GDF8"}, "[4]": {"conditions": "Plate 2, compound + EGF, FGF, PDGF-A, VEGF, PDGF-D, muscimol, GDF8"}, "[5]": {"conditions": "Plate 2, compound + EGF, FGF, PDGF-A, VEGF, PDGF-D, muscimol, GDF8, positive control Activin A/Wnt3a"}, "[6]": {"conditions": "Plate 1, compound + EGF, FGF, PDGF-A, VEGF, PDGF-D, muscimol, GDF8"}, "[7]": {"conditions": "Plate 1, compound + EGF, FGF, PDGF-A, VEGF, PDGF-D, muscimol, GDF8, positive control Activin A/Wnt3a"}, "[8]": {"conditions": "Table 8: hits with greater than 25% activity of the positive control, with GDF-8 and growth factors/agonists"}}}
{"molecule": "9-Methyl-2,3,4,5,7,8,9,10-octahydro-16H-17,21-(azeno)-11,15-(metheno)pyrido[3,2-g][1,3,5,9,13,17]hexaazacyclotricosin-6(1H)-one [Compound 39]", "values": [{"measurement": "SOX17 expression, % of positive control response", "setting": "[1]; with EGF+FGF4+PDGF-A+VEGF, no activin A", "result": "31 % of positive control response"}, {"measurement": "SOX17 expression, % of positive control response", "setting": "[1]; with EGF+FGF4+PDGF-AB, no activin A", "result": "68 % of positive control response"}, {"measurement": "SOX17 expression, % of positive control response", "setting": "[1]; with EGF+FGF4, no activin A", "result": "77 % of positive control response"}]}
{"molecule": "CCN1CC(=O)NCCCc2cccc(c2)-c2ncnc(n2)Nc2cc(Cl)cc(c2)C1", "note": "[Compound 16, 10-Chloro-14-ethyl-3,5,7,14,17,27-hexaazatetracyclo[19.3.1.1˜2,6˜1˜8,12˜]heptacosa-1(25), 2(27), 3,5,8(26), 9,11,21,23-nonaen-16-one]", "values": [{"measurement": "Cell Number, % of positive control", "setting": "[2]; [3]", "result": 62.0, "unit": "%"}, {"measurement": "Cell Number, Average Total Cell Number", "setting": "[2]; [3]", "result": 8303}, {"measurement": "Sox17 Expression, % of positive control", "setting": "[2]; [3]", "result": 36.7, "unit": "%"}, {"measurement": "Sox17 Expression, Average Total Intensity", "setting": "[2]; [3]", "result": "9.20E+07"}, {"measurement": "Cell Number, Average Total Cell Number", "setting": "[2]; [4]", "result": 9064}, {"measurement": "Sox17 Expression, Average Total Intensity", "setting": "[2]; [4]", "result": "1.48E+08"}, {"measurement": "Cell Number, % of positive control", "setting": "[2]; [5]", "result": "57.3 % of positive control"}, {"measurement": "Sox17 Expression, % of positive control", "setting": "[2]; [5]", "result": "51.8 % of positive control"}]}
{"molecule": "O=C1NCCCc2cncc(c2)-c2ncnc(n2)Nc2cc(Cl)cc(c2)CN2CCC[C@@H]12", "note": "[Compound 36, (18S)-10-Chloro-3,5,7,14,20,26,30-heptaazapentacyclo[22.3.1.1˜2,6˜0.1˜8,12˜0.0˜14,18˜]triaconta-1(28), 2(30), 3,5,8(29), 9,11,24,26-nonaen-19-one]", "values": [{"measurement": "Cell Number, Average Total Cell Number", "setting": "[2]; [6]", "result": 7964}, {"measurement": "Sox17 Expression, Average Total Intensity", "setting": "[2]; [6]", "result": "9.47E+07"}, {"measurement": "Cell Number, % of positive control", "setting": "[2]; [7]", "result": "59.5 % of positive control"}, {"measurement": "Sox17 Expression, % of positive control", "setting": "[2]; [7]", "result": "37.8 % of positive control"}, {"measurement": "Cell Number, % of positive control", "setting": "[2]; [8]", "result": "59.5 % of positive control"}, {"measurement": "Sox17 Expression, % of positive control", "setting": "[2]; [8]", "result": "37.8 % of positive control"}, {"measurement": "Sox17 Expression, Average Total Intensity", "setting": "[2]; [8]", "result": "9.47E+07"}]}
{"molecule": "O=C1NCCCc2cncc(c2)-c2ncnc(n2)Nc2cc(Cl)cc(c2)CN2CCCC1C2", "note": "(stereo not shown) [Compound 38, 5-Chloro-1,8,10,12,16,22,30-heptaazapentacyclo[22.2.2.1˜3,7˜0.1˜9,13˜0.1˜14,18˜]hentriaconta-3(31), 4,6,9(30), 10,12,14(29), 15,17-nonaen-23-one]", "values": [{"measurement": "Cell Number, Average Total Cell Number", "setting": "[2]; [4]", "result": 9650}, {"measurement": "Sox17 Expression, Average Total Intensity", "setting": "[2]; [4]", "result": "2.46E+08"}, {"measurement": "Cell Number, % of positive control", "setting": "[2]; [5]", "result": "61.0 % of positive control"}, {"measurement": "Sox17 Expression, % of positive control", "setting": "[2]; [5]", "result": "86.2 % of positive control"}, {"measurement": "Cell Number, % of positive control", "setting": "[2]; [8]", "result": "61.0 % of positive control"}, {"measurement": "Sox17 Expression, % of positive control", "setting": "[2]; [8]", "result": "86.2 % of positive control"}, {"measurement": "Sox17 Expression, Average Total Intensity", "setting": "[2]; [8]", "result": "2.46E+08"}]}
